Measured values reported in patent publication US20060058346A1, “Novel enantiomers of etrahydroisoquinoline derivatives and theirpharmaceutically acceptable salts, their preparations and pharmaceutical compositions” (priority 2002, published 2006).
Read-outs that look alike come from different tables or passages of the source.

Key:
left auricle muscle = assay: Contractile force of left auricle muscle excised from rats; set-up: species or system rat; details: for Contractile Force of Auricle Muscles: vehicle control:100%
Procedure: Immediately after Sprague-Dawley rats (female or male) were anaesthetized with pentobarbital sodium (50 mg/kg, i.m.), the thorax was opened to excise the heart. The heart was submerged in Krebs solution, and left auricle muscle and right auricle muscle were then isolated. The left auricle muscle was placed in an organ bath for recording of contractile force, and applied with electrical field stimulation (voltage 10% higher than threshold voltage, 1 Hz frequency, 5 ms duration). In the case of right auricle muscle, which contracts spontaneously, the number of continuous beats was recorded. In this experiment, to measure contractile fore of the two auricle muscles, the organ bath was warmed to 37° C., and as a physiological solution, Krebs solution (119.8 mM NaCl, 4.6 mM KCl, 2.5 mM CaCl2, 1.2 mM MgCl2, 25 mM NaHCO3, 1.2 mM KH2PO4, 10 mM glucose, 1 mM EDTA, pH 7.4) was used. The Krebs solution (pH 7.4) was continuously saturated with a gas mixture of 95% O2 and 5% CO2. The auricle muscle was under a tension of 1 g, and Krebs solution was exchanged with fresh solution at intervals of 20 minutes while equilibrium was maintained during a recording period of 60 minutes.

rat PRP = assay: Inhibition of platelet aggregation in rat PRP; type: cell-based; details: for IC50: Platelet, rat PRP
Procedure: Male rat (weighing 200±20 g) was anaesthetized with ether. The blood (nine volumes) was collected from heart using a plastic syringe containing 2.2% sodium citrate (one volume). The collected blood was centrifuged at 200×g for 10 minutes to give supernatant platelet-rich plasma (PRP). The residue was centrifuged again at 700×g for 30 minutes, giving platelet-poor plasma (PPP) for experiment. We used a platelet analyzer to count the number of platelet of the PRP. PRP was diluted with physiological saline solution to prepare solution containing platelets in an amount of 400-450×10^6/ml. The inhibitory effects of the compound represented by formulas 3 to 8 was evaluated by platelet aggregation analyzer, and the inhibitory effect of each compound is given as % below. That is, after PRP was incubated for 3 minutes at 37° C., the compounds or a carrier was added thereto, and after 1 min, platelet aggregation-inducing agent such as ADP, collagen, arachidonic acid (AA), U46619 or epinephrine was added thereto, followed by investigation of turbidity caused by aggregation of platelets. % Inhibition=A−B/A×100 [arithmetic formula 1] • (A: Platelet aggregation rate in group treated with an aggregation-inducing agent; • B: Platelet aggregation rate in group treated with both an aggregation-inducing agent and the enantiomers simultaneously)

[1] = tested on: rat with DIC and MOF induced by endotoxin; assay: Endotoxin-induced DIC and multiple organ failure in rat; type: in vivo; details: for platelet concentration compared with LPS only: FIG. 2
Procedure: Rats (Crj:CD(SD); 250±20 g) were used to test sample. Before the compound was administered, the rat was not fed. The compound was orally administered one time per day for two days in an amount of 10 mg˜25 mg/10 ml/kg/day. Distilled water (control group and LPS group) or enantiomer was administered to the rat repeatedly. After one hour, rat was anaesthetized with intramuscular injection of 50 mg/kg of pentobarbital. […] Thereafter, 50 mg/kg of pentobarbital was injected at 2 hour to the rat by intramuscular injection. Therefore, the rat was anaesthetized for all the experiment and operation.
The blood (2 ml for FDP and 6 ml for other variables) was collected from abdominal artery using a plastic syringe, into glass tube containing soy bean trypsin inhibitor and Bothrops atrox venom to measure FDP and into plastic tube containing 2.2% sodium citrate (1/10, volume/volume). The aggregated blood was centrifuged at 1200×g for 5 minutes two times. Before measurement of FDP, the supernatant was stored at freezer for at least 12 hours. Citrated blood was centrifuged at 2000×g for 30 minutes. The supernatant was used for measurement of fibrinogen and PT or APTT time. The aggregated blood collected in glass tube was disposed at the room temperature for 30 min, centrifuged to give the serum for measurement of AST and BUN.
Platelet from total citrated blood was counted by using automatic platelet counter (PLT-4, Texas International Lab.) PT or APTT time was measured by Beckton Dickenson BBL Fibrosystem (Coctkeysville, USA). FDP analysis was accomplished by using Thrombo-wellcotest kit. The said analysis was accomplished by up and down dilution method semi-quantitatively. Measurement of AST and BUN was accomplished by using Autobiochemical analyzer (Hitach 747, Japan).

[2] = tested on: RAW 264.7 macrophage cells; assay: Nitric oxide production in macrophage cell stimulated by LPS (Griess); type: cell-based; details: for inhibition of production of NO: LPS-stimulated macrophage cell; for NO production by LPS in macrophage cell: LPS 1 μg/ml
Procedure: RAW 264.7 macrophage cells were plated on 100 mm culture dishes at a density of 1-2×10^5 cells. Thereafter, the said macrophage cell was incubated in DMEM medium containing 10% fetal calf serum (heat-inactivated), 100 U/ml penicillin, and […] streptomycin in a CO2 incubator. The said macrophage cell was incubated therein confluently. The said incubated macrophage cells were transferred to serum-free DMEM medium, and further incubated therein for about 24 hours. Thereafter, macrophage cells were stimulated with LPS (1 μg/ml) for about 8 hours. (In this progress, experimental group was divided into two groups, group to which the compound was administered, and group to which the compound was not.) Then, nitrite quantification was achieved by performing calorimetric reaction for produced nitrite with Griess reagent and then measuring absorbance at 550 nm, while using NaNO2 as a standard.

LPS-injected rat = assay: Survival in LPS-injected rat; type: in vivo
Procedure: Rats (25˜30 g, ICR), originated from NIH cancer institute (Bethesda, Md., USA) were purchased from Korea Test Animal Corp. (Unsung, Korea). 20 mg/kg of LPS was injected to abdominal cavity of the rat. Thereafter, survival was observed every 24 hours for seven days, to investigate effect of enantiomer on the survival in LPS-injected rat. The compound represented by formula 3 to 8 was administered 30 min before the LPS injection.

[3] = Acute toxicity in rat (LD50); type: in vivo; details: Sprague-Dawley, in vivo
Procedure: Sprague-Dawley rats (six weeks) were used as test sample. Each group was comprised of two rats. […] The said emulsion was administered to two rats one times using intravenous injection and intraperitoneal injection.

[4] = ADP 2 − 5 × 10^−6 M, read-out: IC50 platelet aggregation, ADP
[5] = U46619 1.5 × 10^−6 M with threshold collagen, read-out: IC50 platelet aggregation, U46619
[6] = arachidonic acid 1 − 4 × 10^−5 M with threshold collagen, read-out: IC50 platelet aggregation, AA
[7] = collagen 2 − 5 × 10^−6 g/ml, read-out: IC50 platelet aggregation, collagen
[8] = epinephrine 1 − 4 × 10^−6 M with threshold collagen, read-out: IC50 platelet aggregation, Epinephrine
[9] = ip, single intraperitoneal injection, read-out: LD50, Intraperitioneal injection
[10] = single intravenous injection, read-out: LD50, Intravenous injection

Row | SMILES | effect on contractile force of auricle muscles (left auricle muscle) | Contractile Force of Auricle Muscles (left auricle muscle; 1 × 10^−4 M) | Contractile Force of Auricle Muscles (left auricle muscle; 1 × 10^−5 M) | Contractile Force of Auricle Muscles (left auricle muscle; 1 × 10^−6 M) | Contractile Force of Auricle Muscles (left auricle muscle; 1 × 10^−7 M) | Contractile Force of Auricle Muscles (left auricle muscle; 3 × 10^−5 M) | Contractile Force of Auricle Muscles (left auricle muscle; 3 × 10^−6 M) | Contractile Force of Auricle Muscles (left auricle muscle; 3 × 10^−7 M) | IC50 (rat PRP; [4]) | IC50 (rat PRP; [5]) | IC50 (rat PRP; [6]) | IC50 (rat PRP; [7]) | IC50 (rat PRP; [8]) | platelet concentration compared with LPS only [1] | inhibition of production of NO [2] | NO production by LPS in macrophage cell ([2]; compound 10 μM) | NO production by LPS in macrophage cell ([2]; compound 50 μM) | NO production by LPS in macrophage cell ([2]; compound 100 μM) | LD50 [3, 9] | LD50 [3, 10] | other results
1 | Oc1cc2c(cc1O)[C@H](Cc1ccc3ccccc3c1)NCC2 [Formula 7, (S)-6,7-Dihydroxy-1-(β-naphthylmethyl)-1,2,3,4-tetrahydroisoquinoline] | strongly increased | 380% | 350% | 250% | 120% | 380% | 315% | 170% | 460 µM | 61 µM | 62 µM | 150 µM | 0.9 µM | higher | strongly inhibited production of NO | 31.2 µM | 15.2 µM | 9.4 µM | 376 mg/kg | 184 mg/kg | inhibitory effect on epinephrine-induced platelet aggregation, times as strong as R-enantiomer (rat PRP; epinephrine, S versus R): about seventeen times as strong; inhibitory effect on epinephrine-induced platelet aggregation, times as strong as racemic mixture (rat PRP; epinephrine, S versus racemic mixture): about five times as strong; serum level of FDP compared with R-configuration ([1]; 10 mg/kg, FIG. 4): lower; survival after six days (LPS-injected rat; 15 mg/kg compound 30 min before LPS 20 mg/kg i.p.): 73%; decrease of survival at 30 mg/kg versus 15 mg/kg (LPS-injected rat; LPS 20 mg/kg): 7%
2 | Oc1cc2c(cc1O)[C@@H](Cc1ccc3ccccc3c1)NCC2 [Formula 8, (R)-6,7-Dihydroxy-1-(β-naphthylmethyl)-1,2,3,4-tetrahydroisoquinoline] | no effect | 105% | 100% | 100% | 100% | 105% | 100% | 100% | 540 µM | 49 µM | 7.9 µM | 150 µM | 15 µM | higher | never or slightly inhibited production of NO | 46 µM | 42 µM | 40 µM | 214 mg/kg | 80 mg/kg | survival after six days (LPS-injected rat; 30 mg/kg compound 30 min before LPS 20 mg/kg i.p.): 72%
